22 compounds from patent US20060122181A1, “Heteroaromatic pentacyclic compound and medicinal use thereof” (Japan Tobacco Inc., priority 2003, published 2006) can be followed below.

Structures can show the parent of a compound that is named as a salt.

Series [1] has as its target T1, Recombinant human protein tyrosine phosphatase 1B (Homo sapiens, UniProt P18031).
T1 construct: purchased UBI
T1 sequence (P18031 1-435): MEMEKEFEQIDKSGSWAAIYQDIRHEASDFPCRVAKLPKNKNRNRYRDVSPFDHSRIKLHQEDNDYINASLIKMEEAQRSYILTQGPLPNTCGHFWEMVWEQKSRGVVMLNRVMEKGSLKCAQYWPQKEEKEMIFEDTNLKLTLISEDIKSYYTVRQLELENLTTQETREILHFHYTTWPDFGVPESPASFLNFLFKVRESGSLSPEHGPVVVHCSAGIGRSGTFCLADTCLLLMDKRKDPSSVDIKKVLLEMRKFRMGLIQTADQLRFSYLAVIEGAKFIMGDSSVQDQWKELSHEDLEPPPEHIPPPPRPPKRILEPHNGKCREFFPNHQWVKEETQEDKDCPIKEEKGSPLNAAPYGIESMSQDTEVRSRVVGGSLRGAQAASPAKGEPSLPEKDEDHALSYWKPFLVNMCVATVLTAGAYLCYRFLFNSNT
The series can be described thus: Protein tyrosine phosphatase 1B inhibitory activity (malachite green, phosphorylated insulin receptor peptide substrate). Conditions: recombinant human PTP1B, 60 min room temperature, absorbance 650 nm. The format is biochemical.

Series [2] has as its system male ob/ob mice. Put plainly: Hypoglycemic activity in ob/ob mice. The format is in vivo. Conditions: fasting, relative to control group. The method, then:
A 0.5% methyl cellulose suspension of the test compound was orally administered to 6- to 9-week-old male ob/ob mice grouped according to the glucose level. Only a 0.5% methyl cellulose solution was administered to a control group.
Blood was drawn under fasting condition, which condition was started simultaneously with the administration by means of removing the feed. The blood was drawn under anesthesia from the orbital vein 3 hours after the administration. The blood thus taken was centrifuged and the glucose level was measured from the obtained plasma by the hexokinase method (glucose measurement kit). For evaluation, the percentage (%) of decrease in the glucose level of the test compound-administered group relative to the control group is shown.

Series [3] concerns female ob/ob mice. Put plainly: Effect of concomitant use with glibenclamide on hypoglycemic activity. The class given is in vivo. Conditions: glibenclamide 3 mg/kg oral alone, relative to control. On the procedure: (§1) To 10-week-old female ob/ob mice grouped according to glucose level were orally administered a 0.5% methyl cellulose suspension of the test compound {note: Example 4-2 (1 mg/kg)} (test compound-administered group), a 0.5% methyl cellulose suspension of glibenclamide (3 mg/kg) (glibenclamide-administered group), simultaneously both a 0.5% methyl cellulose suspension of the test compound and a 0.5% methyl cellulose suspension (glibenclamide 3 mg/kg) (test compound and glibenclamide concomitant use group), or a 0.5% methyl cellulose solution alone (control group).
Blood was drawn under fasting condition, which condition was started simultaneously with the administration by means of removing the feed. […] The blood thus taken was centrifuged and the glucose level was measured from the obtained plasma by the hexokinase method (glucose kit). For evaluation, the percentage (%) of decrease in the glucose level of each group other than the control group relative to the control group is shown.

In series [4] the test system is female ob/ob mice. Put plainly: Effect of concomitant use with metformin hydrochloride on hypoglycemic activity. The class given is in vivo. Conditions: metformin chloride 30 mg/kg oral alone, ob/ob mice, relative to control. The method, then:
as §1, with “metformin chloride (30” for “glibenclamide (3”, “(metformin-administered” for “(glibenclamide-administered”, “(metformin chloride 30” for “(glibenclamide 3”, “metformin” for “glibenclamide”, “group). The ob/ob mice were fasted for 3 hours before administration.” for “group).”
Blood was drawn under fasting condition, which condition was started simultaneously with the administration by means of removing the feed. The blood was drawn under anesthesia from the orbital vein 3 and 5 hours after the administration. The blood thus taken was centrifuged and the glucose level was measured from the obtained plasma by the hexokinase method (glucose kit). For evaluation, the percentage (%) of decrease in the glucose level of each group other than the control group relative to the control group is shown.

The test system of series [5] is female ob/ob mice. Put plainly: Effect of concomitant use with voglibose on hypoglycemic activity (sucrose loading). The class given is in vivo. Conditions: voglibose 0.3 mg/kg oral alone, after sucrose loading 2 g/kg, relative to control. On the procedure: as §1, with “9-week-old” for “10-week-old”, “voglibose (0.3” for “glibenclamide (3”, “(voglibose-administered” for “(glibenclamide-administered”, “(voglibose 0.3” for “(glibenclamide 3”, “voglibose” for “glibenclamide”, “group). One hour later, sucrose (2 g/5 mL/kg) was loaded.” for “group).”
Blood was drawn under fasting condition, which condition was started simultaneously with the loading by means of removing the feed. The blood was drawn under anesthesia from the orbital vein 1 and 2 hours after the sucrose loading. The blood thus taken was centrifuged and the glucose level was measured from the obtained plasma by the hexokinase method (glucose kit). For evaluation, the percentage (%) of decrease in the glucose level of each group other than the control group relative to the control group is shown.

Broadly, the IC50 is the midpoint of a concentration-inhibition curve. One may read the melting point as the temperature, or range, at which the solid turns liquid. `CCCC(CCC)c1ccc(OCc2ccc(-c3csc(CN4Cc5ccccc5CC4C(=O)O)n3)cc2)cc1` (stereo not drawn) [Example 1-45] displayed a melting point of 117 to 126 °C. For the same compound, the IC50 in series [1] came out at 0.066 µM. Further, the “blood glucose decreasing rate (%) 3 hours later” value in series [2] (dose 1 mg/kg oral) came to 32%.
On to `CCCC(CCC)c1ccc(OCc2ccc(-c3csc(COc4cncc(C(=O)O)c4)n3)cc2)cc1` [Example 1-48], for which the melting point lay in the range of 165 to 171 °C. The IC50 in series [1] was determined as 0.23 µM. Besides, in series [2] (dose 1 mg/kg oral), the “blood glucose decreasing rate (%) 3 hours later” value was 46%.
`CCCC(CCC)c1ccc(COc2ccc(C)cc2-c2csc(CN(CC(=O)O)Cc3ccccc3)n2)cc1` [Example 3-9] returned a melting point of 126 to 128 °C. In addition, the IC50 in series [1] turned out to be 0.17 µM. Further, in series [2] (dose 1 mg/kg oral), the “blood glucose decreasing rate (%) 3 hours later” value came to 18%.
With `CCCC(CCC)c1ccc(COc2ccc(-c3csc(CN(CC(=O)O)Cc4ccccc4)n3)cc2)cc1` [Example 3-10], the melting point fell in the range of 145 to 148 °C. Further, the IC50 in series [1] amounted to 0.2 µM. Also, the “blood glucose decreasing rate (%) 3 hours later” value in series [2] (dose 1 mg/kg oral) was found to be 18%.
`CCC(CC)c1ccc(COc2ccc(-c3csc(CN(CC(=O)O)Cc4ccc(C(C)C)cc4)n3)cc2)cc1` [Example 3-15] displayed a melting point of 138 to 140 °C. Moreover, the IC50 in series [1] came out at 0.27 µM. In addition, the “blood glucose decreasing rate (%) 3 hours later” value in series [2] (dose 1 mg/kg oral) was 25%.
`CCCC(CCC)c1ccc(COc2ccc(C)cc2-c2csc(CN(CC(=O)O)Cc3ccccn3)n2)cc1` [Example 3-21] had a melting point of 118 to 120 °C. Also, the IC50 in series [1] came out at 0.45 µM. The “blood glucose decreasing rate (%) 3 hours later” value in series [2] (dose 1 mg/kg oral) came to 27%.
As for `CCCC(CCC)c1ccc(COc2ccc(C)cc2-c2csc(CN3Cc4ccccc4CC3C(=O)O)n2)cc1` (stereo not drawn) [Example 3-25], the melting point is 149 to 152 °C. In series [1], the IC50 was determined as 0.14 µM. In addition, the “blood glucose decreasing rate (%) 3 hours later” value in series [2] (dose 1 mg/kg oral) is 20%.
On to `CN(Cc1ccc(C2CCCCC2)cc1)c1ccc(-c2csc(CN(CC(=O)O)Cc3ccccc3)n2)cc1` [Example 3-29], for which the melting point was in the range of 148 to 150 °C. Also, the 50% inhibitory concentration (IC50) in series [1] is 0.41 µM. Besides, in series [2] (dose 3 mg/kg oral), the “blood glucose decreasing rate (%) 3 hours later” value worked out at 41%.
Compound `CN(Cc1ccc([C@H]2CC[C@H](C)CC2)cc1)c1ccc(-c2csc(CN(CC(=O)O)Cc3ccccc3)n2)cc1` [Example 3-32] yielded a melting point of 157 to 159 °C. The IC50 in series [1] is 0.18 µM. In series [2] (dose 1 mg/kg oral), the “blood glucose decreasing rate (%) 3 hours later” value is recorded as 14%.
In turn, `CCCC(CCC)c1ccc(CN(C)c2ccc(-c3csc(CN(CC(=O)O)Cc4ccccn4)n3)cc2)cc1` [Example 3-53] displayed a melting point of 117 to 120 °C. Moreover, the IC50 in series [1] turned out to be 0.28 µM. The “blood glucose decreasing rate (%) 3 hours later” value in series [2] (dose 1 mg/kg oral) is recorded as 20%.
Compound `CC(C)Cc1ccc(CN(C)c2ccc(-c3csc(CN(CC(=O)O)C(=O)Cc4ccc(C(C)C)cc4)n3)cc2)cc1` [Example 3-58] showed a melting point of 124 to 126 °C. In addition, the IC50 in series [1] was determined as 0.39 µM. In series [2] (dose 1 mg/kg oral), the “blood glucose decreasing rate (%) 3 hours later” value worked out at 23%.
Consider `CCCC(CCC)c1ccc(CN(C)c2ccc(-c3csc([C@@H]4Cc5ccccc5CN4CC(=O)[O-])n3)cc2)cc1.[Na+]` [Example 3-64], for which the melting point lay in the range of 186 to 187 °C. Further, the IC50 in series [1] is 0.21 µM. Further, the “blood glucose decreasing rate (%) 3 hours later” value in series [2] (dose 1 mg/kg oral) is 13%.
Compound `CN(Cc1ccc(C2CCCCC2)cc1)c1ccc(-c2csc(CN3CCC(C(=O)O)(c4ccccc4)CC3)n2)cc1` [Example 3-67] came in with a melting point of 220 to 222 °C. Further, in series [1], the IC50 stood at 0.23 µM. In series [2] (dose 3 mg/kg oral), the “blood glucose decreasing rate (%) 3 hours later” value is recorded as 20%.
`CCCC(CCC)c1ccc(CN(C)c2ccc(-c3csc(CN4Cc5ccccc5CC4C(=O)O)n3)cc2)cc1` (stereo not drawn) [Example 3-73] registered a melting point of 176 to 179 °C. The IC50 in series [1] turned out to be 0.2 µM. Besides, the “blood glucose decreasing rate (%) 3 hours later” value in series [2] (dose 1 mg/kg oral) is listed as 14%.
`CN(Cc1ccc(C2CCCCC2)cc1)c1ccc(-c2csc(CNC(Cc3ccccc3)C(=O)O)n2)cc1` (stereo not drawn) [Example 3-76] displayed a melting point of 185 to 190 °C. The IC50 in series [1] worked out at 0.48 µM. Further, the “blood glucose decreasing rate (%) 3 hours later” value in series [2] (dose 1 mg/kg oral) was determined as 33%.
On the same counts, the results for `CCCC(CCC)c1ccc(CN(C)c2ccc(-c3csc(CN(C)[C@@H](Cc4ccccc4)C(=O)O)n3)cc2)cc1` [Example 3-86] are 143 °C, 0.2 µM and 16%.
`CC(C)CCN(CC(=O)O)Cc1nc(-c2ccc(N(C)Cc3ccc([C@H]4CC[C@H](C)CC4)cc3)cc2)cs1` [Example 3-92] yielded a melting point of 166 to 167 °C. In series [1], the IC50 came out at 0.18 µM. Also, the “blood glucose decreasing rate (%) 3 hours later” value in series [2] (dose 1 mg/kg oral) came out at 26%.
`CN(Cc1ccc(C2CCC(C)(C)CC2)cc1)c1ccc(-c2csc(CN(C)S(=O)(=O)c3ccc(C(=O)O)cc3)n2)cc1` [Example 3-98] had a melting point of 218 to 221 °C. In series [1], the IC50 is 0.16 µM. The “blood glucose decreasing rate (%) 3 hours later” value in series [2] (dose 3 mg/kg oral) is 31%.
In turn, `CN(Cc1ccc(C2CCCCC2)cc1)c1ccc(-c2csc(CN(C)S(=O)(=O)c3ccc(C(=O)O)cc3)n2)cc1` [Example 3-100] showed a melting point of 193 to 196 °C. The IC50 in series [1] is 0.15 µM. The “blood glucose decreasing rate (%) 3 hours later” value in series [2] (dose 3 mg/kg oral) came out at 20%.
For the compound `COc1ccc(Cl)cc1C(=O)NCCc1ccc(S(=O)(=O)NC(=O)NC2CCCCC2)cc1` [Glibenclamide, glibenclamide, reference compound], in series [3], the “blood glucose decreasing rate (%) 3 hours later” value was determined as 44% and the “blood glucose decreasing rate (%) 15 hours later” value stood at 40%.
Take `CN(C)C(=N)N=C(N)N` [Metformin, metformin hydrochloride, reference compound]: in series [4], the “blood glucose decreasing rate (%) 3 hours later” value is given as 17% and the “blood glucose decreasing rate (%) 5 hours later” value was 39%.
Regarding `OCC(CO)N[C@H]1C[C@](O)(CO)[C@@H](O)[C@H](O)[C@H]1O` [Voglibose, voglibose, reference compound], in series [5], the “blood glucose decreasing rate (%) 1 hour later” value is 35% and the “blood glucose decreasing rate (%) 2 hours later” value turned out to be 38%.
